Results from patent US20250295646A1, “METHODS OF USE OF T-TYPE CALCIUM CHANNEL MODULATORS” (Praxis Precision Medicines, Inc., priority 2022, published 2025).

Test system: adult patients with essential tremor
Assay: Example 16: accelerometer-based (Kinesia ONE) TETRAS upper limb score
Format: in vivo, human
Source text: Accelerometer (Kinesia ONE) TETRAS assessments were generally consistent with those conducted at the clinic. Accelerometer upper limb score values are summarized for Part A, the open-label titration phase of Part B, and the randomized withdrawal phase of Part B in Table 37, Table 38, and Table 39, respectively

[1] = Part B Open-Label Titration (N = 17), Day 42, Post - dose
[2] = Part B Open-Label Titration (N = 17), Day 42, Pre - dose
[3] = Part B Open-Label Titration, pre-dose baseline upper limb scores ≥10 (N = 12), Day 1, Post - dose
[4] = Part B Open-Label Titration, pre-dose baseline upper limb scores ≥10 (N = 12), Day 7
[5] = Part B Open-Label Titration, pre-dose baseline upper limb scores ≥10 (N = 12), Day 21
[6] = Part B Open-Label Titration, pre-dose baseline upper limb scores ≥10 (N = 12), Day 42, Post - dose
[7] = Part B Open-Label Titration, pre-dose baseline upper limb scores ≥10 (N = 12), Day 42, Pre - dose
[8] = Part B Randomized Withdrawal, Formula (I) group (N = 6), Day 1, Post - dose
[9] = Part B Randomized Withdrawal, Formula (I) group (N = 6), Day 7
[10] = Part B Randomized Withdrawal, Formula (I) group (N = 6), Day 21
[11] = Part B Randomized Withdrawal, Formula (I) group (N = 6), Day 42, Post - dose
[12] = Part B Randomized Withdrawal, Formula (I) group (N = 6), Day 42, Pre - dose
[13] = Part B Randomized Withdrawal, Formula (I) group (N = 6), Day 42 Post - dose (Randomization Baseline)
[14] = Part B Randomized Withdrawal, Formula (I) group (N = 6), Day 56
[15] = Part B Randomized Withdrawal, Formula (I) group (N = 6), Day 70
[16] = Part B Randomized Withdrawal, Day 56
[17] = Part B Randomized Withdrawal, Day 70

## CC(C)(C)NC(=O)CN1CCC(CNC(=O)c2cc(F)cc(Cl)c2)CC1 [compound of formula (I), N-((1-(2-(tert-butylamino)-2-oxoethyl)piperidin-4-yl)methyl)-3-chloro-5-fluorobenzamide]
Part B Open-Label Titration (N = 17), Day 21
  Percentage Change from Baseline in Tremor Amplitude, Median: −17.46%
[1]
  Accelerometer-Based Upper Limb Score, Change from Baseline, LS Mean (SE): −1.798 (0.4511)
  Accelerometer-Based Upper Limb Score, Change from Baseline, Mean (SD): −1.73 (2.009)
  Accelerometer-Based Upper Limb Score, Change from Baseline, Median: −2.40
  Accelerometer-Based Upper Limb Score, observed, Mean (SD): 9.44 (2.857)
  Accelerometer-Based Upper Limb Score, observed, Median: 8.60
  LS Mean Percentage Change in Tremor Amplitude: −29.2%
  Percentage Change from Baseline in Tremor Amplitude, Mean (SD): −24.06 (27.567) %
  Percentage Change from Baseline in Tremor Amplitude, Median: −36.90%
[2]
  Accelerometer-Based Upper Limb Score, Change from Baseline, LS Mean (SE): −1.766 (0.5175)
  Accelerometer-Based Upper Limb Score, Change from Baseline, Mean (SD): −1.70 (1.829)
  Accelerometer-Based Upper Limb Score, Change from Baseline, Median: −2.00
  Accelerometer-Based Upper Limb Score, observed, Mean (SD): 9.48 (3.369)
  Accelerometer-Based Upper Limb Score, observed, Median: 9.65
  LS Mean Percentage Change in Tremor Amplitude: −28.7%
  Percentage Change from Baseline in Tremor Amplitude, Mean (SD): −24.79 (26.969) %
  Percentage Change from Baseline in Tremor Amplitude, Median: −31.87%
[3]
  Accelerometer-Based Upper Limb Score, Change from Baseline, LS Mean (SE): −0.764 (0.4030)
  Accelerometer-Based Upper Limb Score, Change from Baseline, Mean (SD): −0.75 (1.696)
  Accelerometer-Based Upper Limb Score, Change from Baseline, Median: −0.93
  Accelerometer-Based Upper Limb Score, observed, Mean (SD): 11.00 (2.303)
  Accelerometer-Based Upper Limb Score, observed, Median: 10.95
  LS Mean Percentage Change in Tremor Amplitude: −13.6%
  Percentage Change from Baseline in Tremor Amplitude, Mean (SD): −11.30 (25.126) %
  Percentage Change from Baseline in Tremor Amplitude, Median: −16.10%
[4]
  Accelerometer-Based Upper Limb Score, Change from Baseline, LS Mean (SE): −1.677 (0.4345)
  Accelerometer-Based Upper Limb Score, Change from Baseline, Mean (SD): −2.03 (1.939)
  Accelerometer-Based Upper Limb Score, Change from Baseline, Median: −2.05
  Accelerometer-Based Upper Limb Score, observed, Mean (SD): 9.96 (3.151)
  Accelerometer-Based Upper Limb Score, observed, Median: 11.10
  LS Mean Percentage Change in Tremor Amplitude: −27.5%
  Percentage Change from Baseline in Tremor Amplitude, Mean (SD): −28.60 (24.257) %
  Percentage Change from Baseline in Tremor Amplitude, Median: −32.52%
[5]
  Accelerometer-Based Upper Limb Score, Change from Baseline, LS Mean (SE): −2.295 (0.6539)
  Accelerometer-Based Upper Limb Score, Change from Baseline, Mean (SD): −2.04 (2.248)
  Accelerometer-Based Upper Limb Score, Change from Baseline, Median: −1.48
  Accelerometer-Based Upper Limb Score, observed, Mean (SD): 9.91 (2.999)
  Accelerometer-Based Upper Limb Score, observed, Median: 10.98
  LS Mean Percentage Change in Tremor Amplitude: −35.6%
  Percentage Change from Baseline in Tremor Amplitude, Mean (SD): −27.37 (27.794) %
  Percentage Change from Baseline in Tremor Amplitude, Median: −24.34%
[6]
  Accelerometer-Based Upper Limb Score, Change from Baseline, LS Mean (SE): −1.818 (0.5342)
  Accelerometer-Based Upper Limb Score, Change from Baseline, Mean (SD): −1.87 (2.027)
  Accelerometer-Based Upper Limb Score, Change from Baseline, Median: −2.40
  Accelerometer-Based Upper Limb Score, observed, Mean (SD): 9.93 (2.878)
  Accelerometer-Based Upper Limb Score, observed, Median: 10.40
  LS Mean Percentage Change in Tremor Amplitude: −29.4%
  Percentage Change from Baseline in Tremor Amplitude, Mean (SD): −26.06 (27.100) %
  Percentage Change from Baseline in Tremor Amplitude, Median: −36.90%
[7]
  Accelerometer-Based Upper Limb Score, Change from Baseline, LS Mean (SE): −1.559 (0.5803)
  Accelerometer-Based Upper Limb Score, Change from Baseline, Mean (SD): −1.57 (1.914)
  Accelerometer-Based Upper Limb Score, Change from Baseline, Median: −2.00
  Accelerometer-Based Upper Limb Score, observed, Mean (SD): 10.23 (3.244)
  Accelerometer-Based Upper Limb Score, observed, Median: 11.15
  LS Mean Percentage Change in Tremor Amplitude: −25.9%
  Percentage Change from Baseline in Tremor Amplitude, Mean (SD): −22.96 (28.661) %
  Percentage Change from Baseline in Tremor Amplitude, Median: −31.87%
[8]
  Accelerometer-Based Upper Limb Score, Change from Baseline, Mean (SD): −0.08 (1.710)
  Accelerometer-Based Upper Limb Score, Change from Baseline, Median: −0.78
  Accelerometer-Based Upper Limb Score, observed, Mean (SD): 9.98 (2.321)
  Accelerometer-Based Upper Limb Score, observed, Median: 10.78
  Percentage Change from Baseline in Tremor Amplitude, Mean (SD): −2.18 (27.539) %
  Percentage Change from Baseline in Tremor Amplitude, Median: −13.59%
[9]
  Accelerometer-Based Upper Limb Score, Change from Baseline, Mean (SD): −0.79 (1.542)
  Accelerometer-Based Upper Limb Score, Change from Baseline, Median: −1.20
  Accelerometer-Based Upper Limb Score, observed, Mean (SD): 9.55 (2.774)
  Accelerometer-Based Upper Limb Score, observed, Median: 10.15
  Percentage Change from Baseline in Tremor Amplitude, Mean (SD): −12.59 (25.197) %
  Percentage Change from Baseline in Tremor Amplitude, Median: −19.95%
[10]
  Accelerometer-Based Upper Limb Score, Change from Baseline, Mean (SD): −0.56 (1.273)
  Accelerometer-Based Upper Limb Score, Change from Baseline, Median: −0.55
  Accelerometer-Based Upper Limb Score, observed, Mean (SD): 9.50 (2.760)
  Accelerometer-Based Upper Limb Score, observed, Median: 9.88
  Percentage Change from Baseline in Tremor Amplitude, Mean (SD): −8.75 (21.102) %
  Percentage Change from Baseline in Tremor Amplitude, Median: −9.68%
[11]
  Accelerometer-Based Upper Limb Score, Change from Baseline, Mean (SD): −0.68 (1.718)
  Accelerometer-Based Upper Limb Score, Change from Baseline, Median: −0.23
  Percentage Change from Baseline in Tremor Amplitude, Mean (SD): −9.46 (26.746) %
  Percentage Change from Baseline in Tremor Amplitude, Median: −3.87%
[12]
  Accelerometer-Based Upper Limb Score, Change from Baseline, Mean (SD): −0.73 (1.948)
  Accelerometer-Based Upper Limb Score, Change from Baseline, Median: −0.98
  Accelerometer-Based Upper Limb Score, observed, Mean (SD): 9.33 (2.645)
  Accelerometer-Based Upper Limb Score, observed, Median: 10.40
  Percentage Change from Baseline in Tremor Amplitude, Mean (SD): −10.75 (29.656) %
  Percentage Change from Baseline in Tremor Amplitude, Median: −17.06%
[13]
  Accelerometer-Based Upper Limb Score, observed, Mean (SD): 9.38 (2.242)
  Accelerometer-Based Upper Limb Score, observed, Median: 9.50
[14]
  Accelerometer-Based Upper Limb Score, Change from Baseline, Mean (SD): −0.55 (3.145)
  Accelerometer-Based Upper Limb Score, Change from Baseline, Median: 0.62
  Accelerometer-Based Upper Limb Score, Change from Randomization, LS Mean (SE): 0.120 (0.9528)
  Accelerometer-Based Upper Limb Score, Change from Randomization, Mean (SD): 0.13 (1.495)
  Accelerometer-Based Upper Limb Score, Change from Randomization, Median: 0.70
  Accelerometer-Based Upper Limb Score, observed, Mean (SD): 9.51 (2.810)
  Accelerometer-Based Upper Limb Score, observed, Median: 9.75
  LS Mean Percentage Change in Tremor Amplitude (from Randomization): 2.3%
  Percentage Change from Baseline in Tremor Amplitude, Mean (SD): −4.53 (43.487) %
  Percentage Change from Baseline in Tremor Amplitude, Median: 9.78%
  Percentage Change from Randomization in Tremor Amplitude, Mean (SD): 2.74 (24.404) %
  Percentage Change from Randomization in Tremor Amplitude, Median: 12.37%
[15]
  Accelerometer-Based Upper Limb Score, Change from Baseline, Mean (SD): 1.30 (2.932)
  Accelerometer-Based Upper Limb Score, Change from Baseline, Median: 0.35
  Accelerometer-Based Upper Limb Score, Change from Randomization, LS Mean (SE): 2.482 (1.0202)
  Accelerometer-Based Upper Limb Score, Change from Randomization, Mean (SD): 2.34 (2.050)
  Accelerometer-Based Upper Limb Score, Change from Randomization, Median: 1.85
  Accelerometer-Based Upper Limb Score, observed, Mean (SD): 11.33 (2.653)
  Accelerometer-Based Upper Limb Score, observed, Median: 12.40
  LS Mean Percentage Change in Tremor Amplitude (from Randomization): 37.9%
  Percentage Change from Baseline in Tremor Amplitude, Mean (SD): 14.62 (35.044) %
  Percentage Change from Baseline in Tremor Amplitude, Median: 6.50%
  Percentage Change from Randomization in Tremor Amplitude, Mean (SD): 32.71 (20.891) %
  Percentage Change from Randomization in Tremor Amplitude, Median: 29.88%
[16]
  LS Mean (SE) for Difference (Formula (I) - Placebo), change from Randomization in accelerometer-based upper limb score: −2.227 (1.4135)
  LS Mean Percentage Change Difference (Formula (I) - Placebo): −34.0%
[17]
  LS Mean (SE) for Difference (Formula (I) - Placebo), change from Randomization in accelerometer-based upper limb score: −0.356 (1.4667)
  LS Mean Percentage Change Difference (Formula (I) - Placebo): −4.1%
